In patent US11753407B2, “Compounds for treating spinal muscular atrophy” (PTC Therapeutics, Inc., priority 2012, dated 2023):

Columns and labels:
[1] = system: Smn protein in SMA patient fibroblast cells (GM03813); test: Smn protein assay in cultured cells (SMN HTRF); assay type: cell-based, human; details: SMA patient fibroblast cells, 48 hours; for EC1.5x for Smn protein expression: 7-point concentration curve, SMN HTRF, concentration producing 1.5 times Smn protein vs DMSO vehicle control; for maximum fold (Fold) increase of Smn protein: 7-point concentration data, fold relative to vehicle control
How it was run: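 Cells were cultured 72 h, seeded at 5,000/well and dosed with seven concentrations (3.16-fold apart) for 48 h. HTRF on lysates, read at 665 and 620 nm, gave blank-corrected ΔF values relative to DMSO. Potency is reported as EC1.5×, efficacy as maximal fold Smn increase.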

[2] = system: SMN2 minigene mRNA (SMN2-A minigene) in HEK293H cells; test: SMN2 minigene mRNA splicing RT-qPCR assay in cultured cells; assay type: cell-based, human; details: Homo sapiens, HEK293-H; concentration increasing full length SMN2 mRNA 1.5-fold relative to vehicle-treated cells; HEK293H cells with SMN2-A minigene, 24 hours, 7-point concentration data; read-out: EC1.5x for production of full length SMN2 mRNA
How it was run: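 EC1.5× values derive from a 24 h treatment of SMN2-A minigene HEK293H cells and GAPDH-normalized RT-qPCR of exon 7-included minigene mRNA relative to vehicle-treated cells.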

melting point [°C] | Compound | EC1.5x for Smn protein expression [1] | maximum fold (Fold) increase of Smn protein [1] | EC (1.5-fold increase) [2] [µM]
242 to 244 | Cc1cn2cc(-c3cc(=O)n4cc(C5CCN(C(C)C)CC5)ccc4n3)cc(C)c2n1 [Compound 616, 2-(2,8-dimethylimidazo[1,2-a]pyridin-6-yl)-7-[1-(propan-2-yl)piperidin-4-yl]-4H-pyrido[1,2-a]pyrimidin-4-one] | **** (an EC1.5x≤0.3 μM is indicated by four stars (****)) | ***** (a fold increase >1.65 is indicated by five stars (*****)) | < 0.1
243 to 245 | CCCN1CCN(c2ccc3nc(-c4cc5c(CC)nc(C)cn5n4)cc(=O)n3c2)CC1 [Compound 618, 2-(4-ethyl-6-methylpyrazolo[1,5-a]pyrazin-2-yl)-7-(4-propylpiperazin-1-yl)-4H-pyrido[1,2-a]pyrimidin-4-one] | **** (an EC1.5x≤0.3 μM is indicated by four stars (****)) | ***** (a fold increase >1.65 is indicated by five stars (*****)) | < 0.1
255 to 258 | CCc1nc(C)cn2nc(-c3cc(=O)n4cc(N5CCN(C(C)C)CC5)ccc4n3)cc12 [Compound 619, 2-(4-ethyl-6-methylpyrazolo[1,5-a]pyrazin-2-yl)-7-[4-(propan-2-yl)piperazin-1-yl]-4H-pyrido[1,2-a]pyrimidin-4-one] | *** (an EC1.5× between >0.3 μM and ≤1 μM is indicated by three stars (***)) | ***** (a fold increase >1.65 is indicated by five stars (*****)) | 0.1 to 0.3
258 to 260 | CCc1nc(C)cn2nc(-c3cc(=O)n4cc(N5CCN(C6CC6)CC5)ccc4n3)cc12 [Compound 620, 7-(4-cyclopropylpiperazin-1-yl)-2-(4-ethyl-6-methylpyrazolo[1,5-a]pyrazin-2-yl)-4H-pyrido[1,2-a]pyrimidin-4-one] | ** (an EC1.5× between >1 μM and ≤3 μM is indicated by two stars (**)) | *** (a fold increase between >1.35 and ≤1.5 is indicated by three stars (***)) | 0.3 to 1
275 to 278 | CCc1nc(C)cn2nc(-c3cc(=O)n4cc(N5CCN(C6CCC6)CC5)ccc4n3)cc12 [Compound 621, 7-(4-cyclobutylpiperazin-1-yl)-2-(4-ethyl-6-methylpyrazolo[1,5-a]pyrazin-2-yl)-4H-pyrido[1,2-a]pyrimidin-4-one] | **** (an EC1.5x≤0.3 μM is indicated by four stars (****)) | ***** (a fold increase >1.65 is indicated by five stars (*****)) | 0.3 to 1
205 to 208 | CCc1nc(C)cn2nc(-c3cc(=O)n4cc(N5CCN(C6COC6)CC5)ccc4n3)cc12 [Compound 622, 2-(4-ethyl-6-methylpyrazolo[1,5-a]pyrazin-2-yl)-7-[4-(oxetan-3-yl)piperazin-1-yl]-4H-pyrido[1,2-a]pyrimidin-4-one] | ** (an EC1.5× between >1 μM and ≤3 μM is indicated by two stars (**)) | **** (a fold increase between >1.5 and ≤1.65 is indicated by four stars (****)) | 1 to 3
176 to 178 | CCN1CCC2CN(c3ccc4nc(-c5cc6c(C)nc(C)cn6n5)cc(=O)n4c3)CCC21 (centres unmarked) [Compound 623, 2-(4,6-dimethylpyrazolo[1,5-a]pyrazin-2-yl)-7-(1-ethyloctahydro-5H-pyrrolo[3,2-c]pyridin-5-yl)-4H-pyrido[1,2-a]pyrimidin-4-one] | **** (an EC1.5x≤0.3 μM is indicated by four stars (****)) | ***** (a fold increase >1.65 is indicated by five stars (*****)) | < 0.1
184 to 187 | Cc1cn2nc(-c3cc(=O)n4cc(N5CCC6C(CCN6CCO)C5)ccc4n3)cc2c(C)n1 (centres unmarked) [Compound 624, 2-(4,6-dimethylpyrazolo[1,5-a]pyrazin-2-yl)-7-[1-(2-hydroxyethyl)octahydro-5H-pyrrolo[3,2-c]pyridin-5-yl]-4H-pyrido[1,2-a]pyrimidin-4-one] | **** (an EC1.5x≤0.3 μM is indicated by four stars (****)) | ***** (a fold increase >1.65 is indicated by five stars (*****)) | < 0.1
229 to 231 | Cc1cn2cc(-c3cc(=O)n4cc(C5CCN(C(C)C)CC5)ncc4n3)ccc2n1 [Compound 627, 2-(2-methylimidazo[1,2-a]pyridin-6-yl)-7-[1-(propan-2-yl)piperidin-4-yl]-4H-pyrazino[1,2-a]pyrimidin-4-one] | ** (an EC1.5× between >1 μM and ≤3 μM is indicated by two stars (**)) | **** (a fold increase between >1.5 and ≤1.65 is indicated by four stars (****)) | 0.1 to 0.3
249 to 251 | Cc1cn2cc(-c3cc(=O)n4cc(C5CCN(C6CCC6)CC5)ncc4n3)ccc2n1 [Compound 628, 7-(1-cyclobutylpiperidin-4-yl)-2-(2-methylimidazo[1,2-a]pyridin-6-yl)-4H-pyrazino[1,2-a]pyrimidin-4-one] | * (An EC1.5× for Smn protein expression between >3 μM and ≤10 μM is indicated by one star (*)) | **** (a fold increase between >1.5 and ≤1.65 is indicated by four stars (****)) | 0.3 to 1
256 to 258 | CCc1nc(C)cn2nc(-c3cc(=O)n4cc(N5CCN(CC)[C@H](C)C5)ccc4n3)cc12 [Compound 630, 7-[(3R)-4-ethyl-3-methylpiperazin-1-yl]-2-(4-ethyl-6-methylpyrazolo[1,5-a]pyrazin-2-yl)-4H-pyrido[1,2-a]pyrimidin-4-one] | **** (an EC1.5x≤0.3 μM is indicated by four stars (****)) | ***** (a fold increase >1.65 is indicated by five stars (*****)) | < 0.1
243 to 245 | CCCN1CCN(c2ccc3nc(-c4cc5c(CC)nc(C)cn5n4)cc(=O)n3c2)C[C@H]1C [Compound 631, 2-(4-ethyl-6-methylpyrazolo[1,5-a]pyrazin-2-yl)-7-[(3R)-3-methyl-4-propylpiperazin-1-yl]-4H-pyrido[1,2-a]pyrimidin-4-one] | *** (an EC1.5× between >0.3 μM and ≤1 μM is indicated by three stars (***)) | ***** (a fold increase >1.65 is indicated by five stars (*****)) | 0.1 to 0.3
238 to 241 | CCc1nc(C)cn2nc(-c3cc(=O)n4cc(N5CCN(CCO)[C@H](C)C5)ccc4n3)cc12 [Compound 632, 2-(4-ethyl-6-methylpyrazolo[1,5-a]pyrazin-2-yl)-7-[(3R)-4-(2-hydroxyethyl)-3-methylpiperazin-1-yl]-4H-pyrido[1,2-a]pyrimidin-4-one] | **** (an EC1.5x≤0.3 μM is indicated by four stars (****)) | ***** (a fold increase >1.65 is indicated by five stars (*****)) | < 0.1
258 to 260 | CCc1nc(C)cn2nc(-c3cc(=O)n4cc(N5C[C@@H](C)N[C@@H](C)C5)ccc4n3)cc12 [Compound 633, 7-[(3R,5S)-3,5-dimethylpiperazin-1-yl]-2-(4-ethyl-6-methylpyrazolo[1,5-a]pyrazin-2-yl)-4H-pyrido[1,2-a]pyrimidin-4-one] | **** (an EC1.5x≤0.3 μM is indicated by four stars (****)) | ***** (a fold increase >1.65 is indicated by five stars (*****)) | < 0.1
229 to 232 | CCc1nc(C)cn2nc(-c3cc(=O)n4cc(N5CCC(N6CCCC6)CC5)ccc4n3)cc12 [Compound 634, 2-(4-ethyl-6-methylpyrazolo[1,5-a]pyrazin-2-yl)-7-[4-(pyrrolidin-1-yl)piperidin-1-yl]-4H-pyrido[1,2-a]pyrimidin-4-one] | **** (an EC1.5x≤0.3 μM is indicated by four stars (****)) | ***** (a fold increase >1.65 is indicated by five stars (*****)) | < 0.1
202 to 204 | CCc1nc(C)cn2nc(-c3cc(=O)n4cc(N5CCN[C@@H](C)C5)ccc4n3)cc12 [Compound 635, 2-(4-ethyl-6-methylpyrazolo[1,5-a]pyrazin-2-yl)-7-[(3S)-3-methylpiperazin-1-yl]-4H-pyrido[1,2-a]pyrimidin-4-one] | **** (an EC1.5x≤0.3 μM is indicated by four stars (****)) | ***** (a fold increase >1.65 is indicated by five stars (*****)) | < 0.1
175 to 180 | CCc1nc(C)cn2nc(-c3cc(=O)n4cc(N5CCCN(C)CC5)ccc4n3)cc12 [Compound 636, 2-(4-ethyl-6-methylpyrazolo[1,5-a]pyrazin-2-yl)-7-(4-methyl-1,4-diazepan-1-yl)-4H-pyrido[1,2-a]pyrimidin-4-one] | **** (an EC1.5x≤0.3 μM is indicated by four stars (****)) | ***** (a fold increase >1.65 is indicated by five stars (*****)) | < 0.1
